Results reported in ChEMBL document CHEMBL1201862, “PubChem BioAssay data set” (2004).
The source made the active and inactive calls. Rule as the data show it, for most assays here: actives have a measured EC50 and inactives only a lower limit.

Key:
[1] = Trypanosoma cruzi growth suppression in host cells – NIH3T3 host cells, beta-gal luminescence, confirmation (AID 2044); type: functional, cell-based;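 also: intracellular parasites grown in NIH/3T3 mouse fibroblasts as host cells; luminescent beta-galactosidase reporter signal from transgenic T. cruzi replicating inside host cells; inhibitors lower the luminescence signal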
[2] = viability of PTEN-deleted HCT116 cells – cell-based, HCT116 PTEN knockout, dose response (AID 1047); type: functional;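 also: HCT116 colon tumor cells with PTEN knocked out; cells exposed to compound for 60 hours before readout; potency for loss of cell viability measured by luminescence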
[3] = NIH3T3 cell viability loss – ATP luminescence, mouse fibroblasts, counter-screen, dose response (AID 2010); type: functional, cell-based;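 also: cells exposed to compound for about 90 hours before reading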
[4] = viability of HCT116 lacking mutant beta-catenin – cell-based, human colon tumor, dose response (AID 1045); type: functional;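 also: HCT116 colon tumor cells with beta catenin knocked out; cells exposed to compound for 60 hours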
[5] = Luminescence Cell-Based Dose Retest to Confirm Inhibitors of Cancer Stem Cells. [Related pubchem assays (depositor defined):AID2717, AID2721]; type: functional; conditions: Homo sapiens
[6] = Luminescence Cell-Based Dose Response HTS to Identify Inhibitors of 5'UTR Stem-Loop Driven Prion Protein mRNA Translation in H4 Neuroglioblastoma Cells. [Related pubchem assays: 1827 (Project Summary), 1813 (Primary HTS)]; type: functional
[7] = biological target: T1, Replicative DNA helicase DnaB (Mycobacterium tuberculosis, UniProt P9WMR3); test: DnaB intein splicing inhibitors, dose response, biochemical, cell-free fluorescence (AID 449749); type: functional
T1 sequence (P9WMR3 whole entry): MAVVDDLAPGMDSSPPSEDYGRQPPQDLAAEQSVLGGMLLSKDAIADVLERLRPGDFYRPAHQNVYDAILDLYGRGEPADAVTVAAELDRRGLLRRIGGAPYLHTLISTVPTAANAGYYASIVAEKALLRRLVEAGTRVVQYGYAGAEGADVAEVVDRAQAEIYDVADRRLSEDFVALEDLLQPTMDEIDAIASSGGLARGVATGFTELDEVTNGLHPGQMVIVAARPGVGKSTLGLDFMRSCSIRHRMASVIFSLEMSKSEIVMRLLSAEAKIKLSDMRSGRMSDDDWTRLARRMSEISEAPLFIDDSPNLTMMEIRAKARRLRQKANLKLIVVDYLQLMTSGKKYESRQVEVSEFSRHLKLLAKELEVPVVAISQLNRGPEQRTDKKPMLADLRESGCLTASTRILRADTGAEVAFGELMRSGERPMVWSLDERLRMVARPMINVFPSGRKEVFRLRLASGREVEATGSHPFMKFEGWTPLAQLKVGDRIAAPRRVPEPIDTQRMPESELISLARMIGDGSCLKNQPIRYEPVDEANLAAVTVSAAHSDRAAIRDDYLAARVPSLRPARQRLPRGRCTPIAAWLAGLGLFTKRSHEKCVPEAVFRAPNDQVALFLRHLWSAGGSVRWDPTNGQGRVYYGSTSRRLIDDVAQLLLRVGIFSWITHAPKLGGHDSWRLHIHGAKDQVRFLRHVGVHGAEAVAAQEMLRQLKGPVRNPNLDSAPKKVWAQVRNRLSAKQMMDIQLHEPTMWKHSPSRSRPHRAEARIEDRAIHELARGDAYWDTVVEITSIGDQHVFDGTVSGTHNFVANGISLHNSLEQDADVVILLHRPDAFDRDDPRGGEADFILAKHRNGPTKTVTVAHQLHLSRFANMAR

Protein RecA = biological target: T2, Protein RecA (Mycobacterium tuberculosis, UniProt P9WHJ3); test: Fluorescence Cell-Free Homogeneous Dose Retest to Identify Inhibitors of RecA-Intein Splicing Activity. [Related pubchem assays (depositor defined):AID2097, AID2223, AID489010, AID492950]; type: functional
T2 sequence (P9WHJ3 whole entry): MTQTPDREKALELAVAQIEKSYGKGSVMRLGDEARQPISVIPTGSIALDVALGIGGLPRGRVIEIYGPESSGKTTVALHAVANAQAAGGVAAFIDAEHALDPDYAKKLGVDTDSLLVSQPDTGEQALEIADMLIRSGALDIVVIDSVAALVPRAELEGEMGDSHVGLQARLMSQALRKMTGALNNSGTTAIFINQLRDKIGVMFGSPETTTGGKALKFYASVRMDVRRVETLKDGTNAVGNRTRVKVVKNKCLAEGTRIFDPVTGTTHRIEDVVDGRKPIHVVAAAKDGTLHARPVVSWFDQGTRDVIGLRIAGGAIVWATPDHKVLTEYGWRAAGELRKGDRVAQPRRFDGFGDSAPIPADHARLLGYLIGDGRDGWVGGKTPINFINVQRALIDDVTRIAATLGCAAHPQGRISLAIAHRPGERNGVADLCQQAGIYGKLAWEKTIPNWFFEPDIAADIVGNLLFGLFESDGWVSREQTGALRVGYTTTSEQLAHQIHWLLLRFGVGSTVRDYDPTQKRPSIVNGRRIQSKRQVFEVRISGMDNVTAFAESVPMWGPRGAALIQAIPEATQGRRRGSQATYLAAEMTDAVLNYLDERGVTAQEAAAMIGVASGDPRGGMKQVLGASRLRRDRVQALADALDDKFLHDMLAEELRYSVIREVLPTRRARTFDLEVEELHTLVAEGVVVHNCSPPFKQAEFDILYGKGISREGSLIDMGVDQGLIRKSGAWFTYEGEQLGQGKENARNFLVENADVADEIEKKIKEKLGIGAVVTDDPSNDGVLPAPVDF

[8] = Luminescence Cell-Based Dose Confirmation HTS to Identify Activators of 5'UTR Stem-Loop Driven Alpha-Synuclein mRNA Translation in H4 Neuroglioblastoma Cells. [Related pubchem assays: 1829 (Project Summary), 1814 (Primary HTS)]; type: functional
[9] = Luminescence Cell-Based Dose Response HTS to Identify Activators of Luciferase Translation or Activity in H4 […] Cells. [Related pubchem assays: 1829 (Project Summary), 1814 (Primary HTS)]; type: functional
H4 = test: Luminescence Cell-Based Dose Response HTS to Identify Activators of 5'UTR Stem-Loop Driven Prion Protein mRNA Translation in H4 Neuroglioblastoma Cells. [Related pubchem assays: 1829 (Project Summary), 1814 (Primary HTS)]; type: functional; conditions: Homo sapiens
[10] = biological target: T3, Heat shock factor protein 1 (Mus musculus, UniProt P38532); test: enhancement of HSF1-driven luciferase signal – cell-based, NIH3T3, luminescence, dose retest, confirmation (AID 435004); type: functional;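 also: stress induced by proteasome inhibitor MG132 added 30 min after compound; luciferase reporter driven by HSF1 response element in NIH3T3 cells; actives raise luminescence as potentiators of the MG132 stress response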
T3 sequence (P38532 whole entry): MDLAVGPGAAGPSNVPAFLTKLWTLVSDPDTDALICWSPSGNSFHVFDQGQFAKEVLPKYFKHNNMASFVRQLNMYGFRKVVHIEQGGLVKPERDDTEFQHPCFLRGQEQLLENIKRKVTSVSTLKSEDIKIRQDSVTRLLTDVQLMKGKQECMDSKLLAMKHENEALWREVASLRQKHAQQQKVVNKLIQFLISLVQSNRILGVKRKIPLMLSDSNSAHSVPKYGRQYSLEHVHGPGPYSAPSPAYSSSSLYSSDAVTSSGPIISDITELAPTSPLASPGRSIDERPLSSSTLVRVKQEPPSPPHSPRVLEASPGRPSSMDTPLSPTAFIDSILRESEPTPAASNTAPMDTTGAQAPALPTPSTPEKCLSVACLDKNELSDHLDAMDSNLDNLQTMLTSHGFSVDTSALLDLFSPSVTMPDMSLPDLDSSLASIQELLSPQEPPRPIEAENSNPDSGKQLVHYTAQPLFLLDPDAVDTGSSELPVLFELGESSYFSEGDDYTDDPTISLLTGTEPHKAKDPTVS

[11] = luciferase reporter signal suppression in cells – H4 neuroglioma cells, luminescence, dose response (AID 1990); type: functional, cell-based
[12] = alpha-synuclein stem-loop luciferase translation blockers – H4 neuroglioma cells, luminescence, confirmation (AID 1988); type: functional, cell-based

CC(C)(C)c1ccc(/C=C/C(=O)c2ccc(NC3=NCCCS3)cc2)cc1
EC50 [1]: 2.08 µM (active) | EC50 [2]: 6.9 µM (active) | EC50 [3]: > 60 µM (not active) | EC50 [4]: 4.92 µM (active) | AC50 [5]: 2.63 µM (active)

Cc1ccc2[nH]c(SCC3CCCCO3)nc2c1 (stereo not drawn)
EC50 [6]: > 60 µM (inconclusive)

O=S(=O)(Nc1ccc(-n2cnnn2)cc1)c1ccc(F)c(F)c1F
AC50 [7]: > 380 µM (inactive) | EC50 (Protein RecA): > 380 µM (inactive)

CCOc1ccc(NC(=O)c2cn(CC(C)C)c(=O)c3c2c2ccccc2n3C)cc1
EC50 [2]: 10 µM (active) | EC50 [4]: 13.4 µM (active)

CN1C(=O)S/C(=C\c2ccc(-n3cncn3)cc2)C1=O
EC50 [8]: 59.6 µM (active) | EC50 [9]: 32.4 µM (active) | EC50 (H4): > 120 µM (not active)

CC(CC#CCN1CCOCC1)OCCC#N (stereo not drawn)
EC50 [10]: > 260 µM (inactive)

COc1cc(C2C(C#N)=C(N)Oc3[nH]nc(C)c32)ccc1OC(=O)c1ccccc1 (stereo not drawn)
AC50 [7]: 20.3 µM (active) | EC50 (Protein RecA): 17.3 µM (active)

Cc1cc(-c2nnc(-c3cccc(Cl)c3)o2)no1
EC50 [8]: 0.132 µM (active) | EC50 [9]: 0.318 µM (active) | EC50 (H4): 119 µM (active)

Cc1cccc(C(=O)NC2C(=O)NNC2c2ccc(Cl)cc2)c1 (stereo not drawn)
AC50 [7]: 18.7 µM (active) | EC50 (Protein RecA): 18.9 µM (active)

Cc1ccccc1Nc1c(-c2ccc(N3CCOCC3)cc2)nc2cnccn12
EC50 [8]: 15 µM (active) | EC50 [9]: 19.2 µM (active) | EC50 (H4): 16.6 µM (active)

COc1ccc(NC(=O)COc2cccc3c2CCN(Cc2cccnc2)C3=O)c(OC)c1
EC50 [10]: > 260 µM (inactive)

CCCOc1ccc(-c2c(=O)n(O)c3ccccc3[n+]2[O-])cc1
EC50 [8]: 10.1 µM (active) | EC50 [9]: 11.6 µM (active) | EC50 (H4): 97.6 µM (active)

CC(C)(C)OC(=O)N1CC=C2C(C#N)=C(N)C(C#N)(C#N)C(c3cccs3)C2C1 (stereo not drawn)
AC50 [7]: > 380 µM (inactive) | EC50 (Protein RecA): 5.1 µM (active)

CC(C)Nc1nc(N=C(N)S)nc(NC(C)C)n1
EC50 [11]: > 120 µM (not active) | EC50 [6]: > 120 µM (not active) | EC50 [12]: > 120 µM (not active)
